# Measurements taken from publication PMC4700278, “Molecular and Biochemical Analysis of the Estrogenic and Proliferative Properties of Vitamin E Compounds” (Frontiers in Oncology, 2016).
# Assays:
# T47D (ER(+)) cells = assay: Cell proliferation assay (sulforhodamine B); assay type: cell-based, human
# Protocol: (§1) MCF-7 (ER(+)), T47D (ER(+)), and MDA-MB-231 (ER(−)) cell lines were from ATCC. Cell lines were maintained at 37°C in a humidified incubator in a 5% CO2-enriched atmosphere in T-75 flasks. […] Cells were grown for 24 h before treatment in phenol red-free medium containing 5% DCC-FCS. Cells were seeded into 96-well plates at 2000 cells/well. Treatment media (150 μl/well) was added on the following day and replaced at 48-h intervals until the end of the experiment. Cell density was measured via the sulforhodamine B method ([43]) after 0, 2, 4, 6, and 8 days. The absorbance of SRB was measured directly at 490 nm in the 96-well plates using a multiskan® multisoft reader from Labsystem.
# MCF-7 (ER(+)) cells = assay: Cell proliferation assay (sulforhodamine B); assay type: cell-based, human
# Protocol: as §1
# [1] = system: ER-dependent transcription in MELN cells; assay: ERE-luciferase reporter assay in MELN cells (MCF-7 stably transfected with ERE-β-globin-tk-Luc); assay type: cell-based, human; settings: for stimulation of luciferase expression (ER-dependent transcription): 500 μM (tocols 10 to 500 μM)
# Source text: MELN cells were established by transfecting ER(+) MCF-7 cells with the ERE-β-globin-tk-Luc-SV-Neo plasmid ([36]). HELN cells were generated by transfection of ER(−) HeLa cells with this plasmid. The HELN-ERα, HELN-ERβ, HELN-ΔAB-ERα, and HELN-ΔAB-ERβ cell lines then underwent a second transfection with the corresponding pSG5-puro plasmids (pSG5-ERα-puro, pSG5-ERβ-puro, pSG5-ΔAB-ERα-puro, and pSG5-ΔAB-ERβ-puro, respectively) and expressed wild-type or mutated ERα or ERβ ([39], [40]). […] Comparison of the activities toward hERα and hERβ with the truncated ΔAB-ERα and ΔAB-ERβ provides a powerful model to identify partial ER agonists (requiring ligand-independent AF-1 to induce maximal ER activation). […] Cells were grown routinely in DMEM growth medium supplemented with 5% FBS (Gibco BRL, Life Technologies, Cergy pontoise, France). Cells were incubated at 37°C in a humidified 5% CO2 incubator. For experiments, cells were grown for 5 days in phenol red-free medium, containing 6% dextran-coated charcoal-treated FCS (DCC-FCS) with penicillin–streptomycin. Medium was changed after 2 days. On day 5, cells were treated or not with the compounds, which were dissolved in ethanol. For each condition, 15 × 10^3 cells were seeded per well in 12-well plates and treated, as described above, for 8 h in a final volume of 0.5 ml. At the end of the treatment, cells were washed with PBS and lysed in 150 μl lysis buffer (Promega, Charbonnières, France). Luciferase activity was measured using the luciferase assay reagent (Promega), according to the manufacturer’s instructions. Protein concentrations were measured using the Bradford technique ([41]) to normalize the luciferase activity data. For each condition, average luciferase activity was calculated from the data of three independent wells.
# Figure 3 Measurement of estrogenicity of tocols in vitro. (A) Dose–response curve of the effect of tocols on MCF-7 cells stably transfected with the ERE-β-globin-tk-Luc plasmid (MELN cells). […] Data shown are the mean values ± SEM from three independent experiments. […] MCF-7 extracts were analyzed for the presence of ERα by western blotting using GAPDH as a control. […] The western blot shown is representative of three independent experiments. The ratio of ERα to GAPDH levels in each experiment was determined densitometrically and normalized to control value (taken to be 1). (D) Effect of δ-tocols on estrogen response element-dependent luciferase activity in HELN cells, which are HELA cells transfected with either fully functional ERα or ERβ or their mutated versions containing a deletion the AB domain (ΔAB). […] Data shown are the mean values ± SEM from three independent experiments. […] Cells were treated with 500 μM δ-tocols in the presence or in the absence of ICI. The relative expression of TGFα, PR, and Ps2 (TFF1) after 16 h was analyzed by quantitative RT-PCR. Data shown are the mean values ± SEM from three independent experiments.
# ERβ = ERβ (Homo sapiens, UniProt Q92731); assay: Estrogen receptor-binding assay, competition with [3H]-17β-estradiol; parameters: expressed in transfected cells; host or cells: Cos-7; settings: extracts of cos-7 cells expressing human ERβ; 2 nM [3H]-E2; tocols 1 μM to 1 mM; N.M. = not measurable
# ERα = target: T1, ERα (Homo sapiens, UniProt P03372); assay: as above; parameters: expressed in transfected cells; host or cells: Cos-7; settings: extracts of cos-7 cells expressing human ERα; 2 nM [3H]-E2; tocols 1 μM to 1 mM; N.M. = not measurable
# T1 sequence (P03372 1-595): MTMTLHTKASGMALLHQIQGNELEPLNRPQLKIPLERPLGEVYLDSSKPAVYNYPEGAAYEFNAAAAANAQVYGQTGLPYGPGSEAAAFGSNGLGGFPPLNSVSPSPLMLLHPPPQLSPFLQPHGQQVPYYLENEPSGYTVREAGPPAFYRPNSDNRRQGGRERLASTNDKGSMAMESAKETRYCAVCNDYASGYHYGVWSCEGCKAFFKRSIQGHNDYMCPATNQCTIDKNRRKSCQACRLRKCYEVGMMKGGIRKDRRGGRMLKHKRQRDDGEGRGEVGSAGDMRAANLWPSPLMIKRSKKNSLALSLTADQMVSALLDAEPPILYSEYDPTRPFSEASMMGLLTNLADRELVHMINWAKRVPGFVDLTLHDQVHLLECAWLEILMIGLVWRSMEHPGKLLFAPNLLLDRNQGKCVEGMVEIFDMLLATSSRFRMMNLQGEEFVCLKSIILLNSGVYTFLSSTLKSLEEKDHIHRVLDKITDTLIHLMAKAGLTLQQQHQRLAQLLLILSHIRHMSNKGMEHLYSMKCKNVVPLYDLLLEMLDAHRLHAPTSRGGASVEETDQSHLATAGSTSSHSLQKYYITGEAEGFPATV
# MDA-MB-231 (ER(−)) cells = assay: Cell proliferation assay (sulforhodamine B); assay type: cell-based, human; settings: 500 μM δ-TP or δ-TT; 30 μM lovastatin; 6-day period
# Protocol: MCF-7 (ER(+)), T47D (ER(+)), and MDA-MB-231 (ER(−)) cell lines were from ATCC. Cell lines were maintained at 37°C in a humidified incubator in a 5% CO2-enriched atmosphere in T-75 flasks. MCF-7, T47D, and MDA-MB-231 cells were grown routinely in phenol red RPMI 1640 medium supplemented with 5% FBS (Gibco BRL, Life Technologies, Cergy Pontoise, France) and with penicillin–streptomycin. Cells were grown for 24 h before treatment in phenol red-free medium containing 5% DCC-FCS. Cells were seeded into 96-well plates at 2000 cells/well. Treatment media (150 μl/well) was added on the following day and replaced at 48-h intervals until the end of the experiment. Cell density was measured via the sulforhodamine B method ([43]) after 0, 2, 4, 6, and 8 days. The absorbance of SRB was measured directly at 490 nm in the 96-well plates using a multiskan® multisoft reader from Labsystem.
# Figure 4 Effect of tocol on ER(+) and ER(−) BC cell proliferation and HMG-CoA reductase activity. (A) Effect of δ-tocols on estrogen and non-estrogen-regulated growth of MCF-7, T47D, and MDA-MB-231 cells. […] Cells were also treated with 30 μM lovastatin (Lova) in the presence or absence of 5 mM M, as described in Section “Materials and Methods.” Values are shown as means and vertical bars represent SEM. The data were analyzed by two-way ANOVA, followed by Bonferroni post hoc test. ***P < 0.001, **P < 0.01, and *P < 0.05 in comparison with control or bare-linked specific control. Ns: not significant. (B) Effect of δ-TT on hydroxymethylglutaryl coenzyme A reductase (HMGR) activity in MCF-7, T47D, and MDA-MB-231 cells. […] Data shown are the mean values ± SEM from three independent experiments performed in triplicate.
# [2] = 500 μM δ-TP or δ-TT, 30 μM lovastatin, 6-day period
# Chain of ERβ (Q92731 whole entry): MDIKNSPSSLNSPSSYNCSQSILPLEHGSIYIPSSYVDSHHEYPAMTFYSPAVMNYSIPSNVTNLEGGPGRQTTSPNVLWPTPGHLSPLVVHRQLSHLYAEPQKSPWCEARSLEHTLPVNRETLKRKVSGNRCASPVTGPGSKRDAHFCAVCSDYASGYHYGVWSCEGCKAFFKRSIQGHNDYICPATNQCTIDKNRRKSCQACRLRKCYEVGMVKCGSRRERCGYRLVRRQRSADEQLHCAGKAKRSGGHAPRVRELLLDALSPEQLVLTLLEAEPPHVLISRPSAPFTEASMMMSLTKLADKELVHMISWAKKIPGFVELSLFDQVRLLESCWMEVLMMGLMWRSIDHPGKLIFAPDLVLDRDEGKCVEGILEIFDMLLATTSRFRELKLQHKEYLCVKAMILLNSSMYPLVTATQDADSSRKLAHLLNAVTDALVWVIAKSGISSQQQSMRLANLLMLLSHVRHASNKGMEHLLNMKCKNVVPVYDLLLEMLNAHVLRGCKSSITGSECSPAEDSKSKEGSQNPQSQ
Compound,IC50 (ERβ) [µM],IC50 (ERα) [µM],stimulation of luciferase expression (ER-dependent transcription) [1],further results
"CCCCN(C)C(=O)CCCCCCCCCCC1Cc2cc(O)ccc2C2CC[C@@]3(C)C(CC[C@@H]3O)C12 (stereo partly shown) [ICI 164,384, reference compound]",–,–,–,"blockade of δ-TP- and E2-induced stimulation of T47D proliferation (T47D (ER(+)) cells; 1 μM ICI 164,384): blocked; blockade of δ-TP- and E2-induced stimulation of MCF-7 proliferation (MCF-7 (ER(+)) cells; 1 μM ICI 164,384): blocked; blockade of tocol-induced ER-dependent transcriptional activity ([1]; 1 μM ICI 164,384 with 500 μM δ-TP or δ-TT): blocked"
"Cc1c(O)cc2c(c1C)O[C@](C)(CCC[C@H](C)CCC[C@H](C)CCCC(C)C)CC2 [γ-TP, γ-tocopherol]",215 ± 16,227 ± 28,–,–
"CC(C)=CCC/C(C)=C/CC/C(C)=C/CC[C@]1(C)CCc2cc(O)c(C)c(C)c2O1 [γ-TT, γ-tocotrienol]",205 ± 18,203 ± 25,–,–
"Cc1c(C)c2c(c(C)c1O)CC[C@@](C)(CCC[C@H](C)CCC[C@H](C)CCCC(C)C)O2 [α-TP, α-tocopherol]",431 ± 21,453 ± 30,–,–
"CC[C@H](C)C(=O)O[C@H]1C[C@@H](C)C=C2C=C[C@H](C)[C@H](CC[C@@H]3C[C@@H](O)CC(=O)O3)[C@H]21 [lovastatin, reference compound]",–,–,–,effect on T47D cell proliferation (T47D (ER(+)) cells; [2]): inhibition of cell proliferation; effect on MCF-7 cell proliferation (MCF-7 (ER(+)) cells; [2]): inhibition of cell proliferation; effect on MDA-MB-231 cell proliferation (MDA-MB-231 (ER(−)) cells): inhibition of cell proliferation
"CC(C)=CCC/C(C)=C/CC/C(C)=C/CC[C@]1(C)CCc2c(C)c(O)c(C)c(C)c2O1 [α-TT, α-tocotrienol]",388 ± 32,412 ± 22,–,–
"Cc1cc(C(C)(C)C)c(O)c(C(C)(C)C)c1 [BHT, butylated hydroxytoluene, reference compound]",–,–,did not stimulate the expression of luciferase,–
"CC(C)(Sc1cc(C(C)(C)C)c(O)c(C(C)(C)C)c1)Sc1cc(C(C)(C)C)c(O)c(C(C)(C)C)c1 [Probucol, probucol, reference compound]",–,–,did not stimulate the expression of luciferase,–
"CC1=CC(=O)C=C(CC[C@](C)(O)CCC[C@H](C)CCC[C@H](C)CCCC(C)C)C1=O [δ-TPQuin, δ-tocopherylquinone]",–,–,did not stimulate the expression of luciferase,ERβ (IC50) (ERβ): did not bind and N.M.; ERα (IC50) (ERα): did not bind and N.M.
